We go through twelve molecules from patent EP3130589A1, “HETEROCYCLIC AZA COMPOUNDS” (Grünenthal GmbH, priority 2015, dated 2017).

T1 sequence (Q8NER1 whole entry): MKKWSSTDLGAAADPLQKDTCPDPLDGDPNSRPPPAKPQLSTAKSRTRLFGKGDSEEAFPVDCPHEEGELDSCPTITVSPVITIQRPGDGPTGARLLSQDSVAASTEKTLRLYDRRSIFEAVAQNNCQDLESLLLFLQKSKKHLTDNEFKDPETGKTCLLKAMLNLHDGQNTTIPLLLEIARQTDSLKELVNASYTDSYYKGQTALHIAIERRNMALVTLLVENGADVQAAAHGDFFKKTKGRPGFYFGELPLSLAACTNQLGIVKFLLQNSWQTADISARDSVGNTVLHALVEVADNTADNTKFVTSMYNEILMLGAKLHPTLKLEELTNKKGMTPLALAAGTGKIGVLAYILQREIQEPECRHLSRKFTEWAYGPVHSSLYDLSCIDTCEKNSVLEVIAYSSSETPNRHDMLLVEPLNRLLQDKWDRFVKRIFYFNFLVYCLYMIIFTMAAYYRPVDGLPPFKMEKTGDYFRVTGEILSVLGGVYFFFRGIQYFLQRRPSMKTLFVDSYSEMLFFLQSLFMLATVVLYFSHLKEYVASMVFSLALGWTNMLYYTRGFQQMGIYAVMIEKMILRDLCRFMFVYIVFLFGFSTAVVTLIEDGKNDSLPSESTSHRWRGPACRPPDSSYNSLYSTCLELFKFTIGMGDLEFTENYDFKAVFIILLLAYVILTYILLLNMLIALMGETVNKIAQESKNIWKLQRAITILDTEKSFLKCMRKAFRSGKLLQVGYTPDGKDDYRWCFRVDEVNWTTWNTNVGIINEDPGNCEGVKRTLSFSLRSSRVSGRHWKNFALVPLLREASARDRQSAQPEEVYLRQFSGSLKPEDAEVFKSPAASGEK

The experiment concerns the target T1, TRPV1 human (Homo sapiens, UniProt Q8NER1).
T1 construct: expressed in transfected cells; host or cells: CHO K1 cells
As to the kind of experiment: Functional testing on the vanilloid receptor 1 (VR1/TRPV1): FLIPR Ca2+ influx assay, inhibition of capsaicin (CAP) stimulation. The following applies: functional (f) FLIPR assay, capsaicin (CAP) 100 nM; Ki from IC50 by Cheng-Prusoff equation. The format is cell-based. As to the method: Furthermore, preference may be given to compounds according to the invention that cause a 50 per cent displacement of capsaicin, which is present at a concentration of 100 nM, in a FLIPR assay with CHO K1 cells which were transfected with the human VR1 gene at a concentration of less than 6,000 nM, preferably less than 5,000 nM, more preferably less that 3,000 nM or less than 1,000 nM and particularly preferably less than 300 nM, most particularly preferably less than 100 nM, even more preferably less than 75 nM, additionally preferably less than 50 nM, most preferably less than 10 nM.
In the process, the Ca^2+ influx is quantified in the FLIPR assay with the aid of a Ca^2+-sensitive dye (type Fluo-4, Molecular Probes Europe BV, Leiden, the Netherlands) in a fluorescent imaging plate reader (FLIPR, Molecular Devices, Sunnyvale, USA), as described hereinafter.
Functional testing carried out on the vanilloid receptor 1 (VRI/TRPV1 receptor) […]
The number of cells in the suspension is set to 3 x 10^5 per mL and 150 µL of this suspension are in each case introduced into a recess in the cell culture plates coated as described hereinbefore. In the incubator the plates are left for two to three days at 37°C, 5 vol.-% of CO2 and 95 % relative humidity. Subsequently, the cells are loaded with 2 µM of Fluo-4 and 0.01 vol.-% of Pluronic F127 (Molecular Probes Europe BV, Leiden, the Netherlands) in HBSS buffer for 30 min at 37°C, washed 3 times with HBSS buffer and after further incubation for 15 min at RT used for Ca^2+ measurement in a FLIPR assay. The Ca^2+-dependent fluorescence is in this case measured before and after the addition of substances (λex = 488 nm, λem = 540 nm). Quantification is carried out by measuring the highest fluorescence intensity (FC, fluorescence counts) over time.
The FLIPR protocol consists of 2 substance additions. First the compounds to be tested (10 µM) are pipetted onto the cells and the Ca^2+ influx is compared with the control (capsaicin 10 µM). This provides the result in % activation based on the Ca^2+ signal after the addition of 10 µM of capsaicin (CP). After 5 min incubation, 100 nM of capsaicin are applied and the Ca^2+ influx is also determined. Desensitising agonists and antagonists lead to suppression of the Ca^2+ influx. The % inhibition is calculated compared to the maximum achievable inhibition with 10 µM of capsazepine.
Triple analyses (n=3) are carried out and repeated in at least 3 independent experiments (N=4). Starting from the percentage displacement caused by different concentrations of the compounds to be tested of general formula I, IC50 inhibitory concentrations which cause a 50% displacement of capsaicin were calculated.
Ki values for the test substances were obtained by conversion by means of the Cheng-Prusoff equation (Cheng, Prusoff; Biochem. Pharmacol. 22, 3099-3108, 1973).
A word on the Ki: it is the dissociation constant of the complex between target and ligand, obtained from inhibition or displacement. The molecule `CC1CCN(c2nc(C(F)(F)F)ccc2CNC(=O)C(C)c2cn(C)c3ccc(O)cc23)CC1` (stereo not drawn) [example compound 1, 2-(5-hydroxy-1-methyl-1H-indol-3-yl)-N-((2-(4-methylpiperidin-1-yl)-6-(trifluoromethyl)pyridin-3-yl)methyl)propanamide] gave an inhibition constant Ki of 0.8 nM. `COc1ccc2c(c1)c(CC(=O)NCc1ccc(C(F)(F)F)nc1N1CCC(C)CC1)cn2C` [example compound 2, 2-(5-methoxy-1-methyl-1H-indol-3-yl)-N-((2-(4-methylpiperidin-1-yl)-6-(trifluoromethyl)pyridin-3-yl)methyl)acetamide] had a Ki of 29.6 nM.

Take `CC(C(=O)NCc1ccc(C(F)(F)F)nc1C1CCCC1)c1cn(C)c2ccc(O)cc12` (stereo not drawn) [example compound 3, N-((2-cyclopentyl-6-(trifluoromethyl)pyridin-3-yl)methyl)-2-(5-hydroxy-1-methyl-1H-indol-3-yl)propanamide]: the Ki was determined as 4.8 nM. `CCNc1nc(C(F)(F)F)ccc1CNC(=O)C(C)c1cn(C)c2ccc(O)cc12` (stereo not drawn) [example compound 4, N-((2-(ethylamino)-6-(trifluoromethyl)pyridin-3-yl)methyl)-2-(5-hydroxy-1-methyl-1H-indol-3-yl)propanamide] had an inhibition constant Ki of 44.2 nM.

As for `CC(C(=O)NCc1ccc(C(F)(F)F)nc1N1CCCC1)c1cn(C)c2ccc(O)cc12` (stereo not drawn) [example compound 5, 2-(5-hydroxy-1-methyl-1H-indol-3-yl)-N-((2-(pyrrolidin-1-yl)-6-(trifluoromethyl)pyridin-3-yl)methyl)propanamide], the Ki worked out at 5 nM. The figure for `CCCCNc1nc(C(F)(F)F)ccc1CNC(=O)C(C)c1cn(C)c2ccc(O)cc12` (stereo not drawn) [example compound 6, N-((2-(butylamino)-6-(trifluoromethyl)pyridin-3-yl)methyl)-2-(5-hydroxy-1-methyl-1H-indol-3-yl)propanamide] is 16.2 nM; for `CC(C(=O)NCc1ccc(C(F)(F)F)nc1OC1CCOCC1)c1cn(C)c2ccc(O)cc12` (stereo not drawn) [example compound 7, 2-(5-hydroxy-1-methyl-1H-indol-3-yl)-N-((2-((tetrahydro-2H-pyran-4-yl)oxy)-6-(trifluoromethyl)pyridin-3-yl)methyl)propanamide] it is 29.1 nM; for `Cc1cccc(-c2nc(C(F)(F)F)ccc2CNC(=O)C(C)c2cn(C)c3ccc(O)cc23)c1` (stereo not drawn) [example compound 8, 2-(5-hydroxy-1-methyl-1H-indol-3-yl)-N-((2-(m-tolyl)-6-(trifluoromethyl)pyridin-3-yl)methyl)propanamide] it is 1.4 nM. `CC(C(=O)NCc1ccc(C(F)(F)F)nc1C1CCOCC1)c1cn(C)c2ccc(O)cc12` (stereo not drawn) [example compound 9, 2-(5-hydroxy-1-methyl-1H-indol-3-yl)-N-((2-(tetrahydro-2H-pyran-4-yl)-6-(trifluoromethyl)pyridin-3-yl)methyl)propanamide] gave a Ki of 45.7 nM.

In the case of `CC(C(=O)NCc1ccc(C(F)(F)F)nc1N1CCOCC1)c1cn(C)c2ccc(O)cc12` (stereo not drawn) [example compound 10, 2-(5-hydroxy-1-methyl-1H-indol-3-yl)-N-((2-morpholino-6-(trifluoromethyl)pyridin-3-yl)methyl)propanamide], the affinity corresponds to a Ki of 29.3 nM. With `CC1CCN(c2nc(C(F)(F)F)ccc2CNC(=O)Cc2cn(C)c3ccc(O)cc23)CC1` [example compound 11, 2-(5-hydroxy-1-methyl-1H-indol-3-yl)-N-((2-(4-methylpiperidin-1-yl)-6-(trifluoromethyl)pyridin-3-yl)methyl)acetamide], the Ki is 0.3 nM.

On to `COCCCc1nc(C(F)(F)F)ccc1CNC(=O)C(C)c1cn(C)c2ccc(O)cc12` (stereo not drawn) [example compound 12, 2-(5-hydroxy-1-methyl-1H-indol-3-yl)-N-((2-(3-methoxypropyl)-6-(trifluoromethyl)pyridin-3-yl)methyl)propanamide], for which the Ki came out at 81 nM.
